From patent US20150020916A1, “Antiperspirant Spray Devices and Compositions” (The Procter & Gamble Company, priority 2013, published 2015)

Text: (§1) Solubility may be determined by measuring the amount of light transmittance (a light transmittance value) through a simple mixture of the non-volatile silicone fluid and liquid activation enhancer at the same weight/weight concentrations as in a final antiperspirant composition.
as §1, with “Solubility of a liquid activation enhancer in a non-volatile silicone” for “Solubility”, “(light” for “(a light”
The Spectronic Genesys 10 Vis utilizes a tungsten-halogen light source and has a spectral bandwidth of 5 nm, a wavelength range of 325 to 1100 nm, accuracy of ±1 nm and a repeatability of ±0.5 nm. Readouts include absorbance, transmittance and concentration. The spectrophotometer is set to 640 nm wavelength and the percent transmittance mode/readout. Polystyrene spectrometer cuvettes having a 1 cm optical light path and transmittance between ˜340 nm and ˜900 nm are used. One suitable example of a spectrometer cuvette is available from VWR International LLC under Catalog #97000-584 having a 2.5 to 4.5 ml capacity. The spectrophotometer is calibrated according to the manufacturer's instructions using a reference cuvette and composition comprised of just the non-volatile silicone fluid of interest. For example, if the test composition comprises 50 centistoke dimethicone and 15% w/w of isopropyl myristate, then the spectrometer is calibrated using a cuvette containing just 50 centistoke dimethicone. Sample cuvettes are filled sufficiently with a test composition of a non-volatile silicone fluid and liquid activation enhancer so that the light path of the spectrophotometer passes through the test composition in the cuvette. The sample cuvettes are shaken well just prior to taking a light transmittance reading.
In the case of mineral oil, the “solubility in 50 centistoke dimethicone” value is reported as “soluble in 50 centistoke dimethicone at some (lower) concentrations”. In the case of PPG-14 butyl ether, the “solubility in 50 centistoke dimethicone” value is reported as “insoluble”. With CCCCCCCCCCCCCCCCCC(=O)OCCCC [butyl stearate] the light transmittance value was “about 100%”. With CCCCCCCCCCCCCCCC(=O)OC(C)C [isopropyl palmitate] the light transmittance value was “about 101%”. With CCCCCCCCCCC(CO)CCCCCCCC (centres unmarked) [octyldodecanol] the “solubility in 50 centistoke dimethicone” value was “soluble in the 50 centistoke dimethicone at some (lower) concentrations”. In the case of CCCCCCCCCCCCCC(C)C [isohexadecane], the light transmittance value is reported as “about 100%” and the “solubility in 50 centistoke dimethicone” value is reported as “soluble”. In the case of CCCCCCCCCCCCCC(=O)OC(C)C [isopropyl myristate], the light transmittance value is reported as “about 101%”.
